Laboratory results: patent publication US20250213550A1, “COMPOUNDS AND METHODS FOR TREATING INFLAMMATORY BOWEL DISEASE” (Gilead Sciences, Inc., priority 2023, published 2025)
Read-outs that look alike come from different tables or passages of the source.

What was measured:
Format in all cases: in vivo, human
[1] = Drug-drug interaction: Compound 1 on PK of combined oral contraceptive DRSP/EE; conditions: co-administration of Compound 1 (600 mg) with DRSP/EE, relative to DRSP/EE alone
Method: (§1) A Phase 1, open-label, single-center, multiple-cohort study was conducted to evaluate the effect of a mixed OATP/P-gp inhibitor (cyclosporine A; CsA) or food on the PK of Compound 1, the effect of Compound 1 on the PK of midazolam (MDZ), the effect of Compound 1 on the PK of OATP/CYP3A/BCRP substrates using atorvastatin (ATV), pravastatin (PRA), and rosuvastatin (ROS), and the effect of Compound 1 on the PK of a representative combined oral contraceptive (drospirenone/ethinyl estradiol; DRSP/EE), in healthy participants. 70 participants ages 18 to 55 years (inclusive) and having BMI of ≥18.0 kg/m^2 and ≤30.0 kg/m^2 were enrolled. For Cohorts 1-3, there were an approximately even distribution of healthy participants assigned male at birth and nonpregnant, nonlactating participants assigned female at birth. Cohort 4 included only healthy, nonpregnant, nonlactating participants assigned female at birth.
Participants in Cohort 4 received treatment sequence OPQR.
Treatment O: Single dose of DRSP 3 mg and EE 0.02 mg, administered under fasting condition on Day 1 of Period 1 […]
(§2) Concentrations of Compound 1 and its active metabolites Compound A and Compound B, MDZ and its metabolite 1-OH-MDZ, ATV and its metabolite 2-OH-ATV, PRA, ROS, DRSP, and EE in plasma PK samples were determined by validated high performance liquid chromatography tandem mass spectrometry (LC-MS/MS) bioanalytical methods.

OATP/P-gp = assay: Drug-drug interaction: mixed OATP/P-gp inhibitor CsA on PK of Compound A; conditions: co-administration of Compound 1 600 mg with CsA 600 mg, fasted
Method: as §1
Treatment C: Single dose of Compound 1 600 mg, administered in the AM, under fasted conditions with a single dose of CsA 600 mg […]
as §2

[2] = Food effect on Compound A plasma PK after single dose Compound 1 600 mg; conditions: for Tmax: 600 mg, read-out: median Tmax
Method: as §1
Participants in Cohort 1 were randomized to 1 of 2 treatment sequences (ABC or BAC), in a 1:1 ratio.
Treatment A: Single dose of Compound 1 600 mg, administered in the AM, under fasted conditions
Treatment B: Single dose of Compound 1 600 mg, administered in the AM, within 5 minutes of completing a high-fat/high-calorie meal
• Periods 1, 2, and 3: Day 1, 0 (pre-dose, ≤5 min before dose), 0.25, 0.5, 1, 1.5, 2, 3, 4, 6, 8, 12, 18, 24, 36, 48, 72, and 96 hours post-dose; and at the early termination (ET) visit, as applicable
as §2
Pharmacokinetic parameters were determined for Compound 1 and its metabolites for all cohorts, MDZ and 1-OH-MDZ for Cohort 2; ATV, 2-OH-ATV, PRA, and ROS for Cohort 3; and DRSP and EE for Cohort 4.

[3] = Compound 1 600 mg single dose, vs fasting

increase of Compound A AUCinf (OATP/P-gp) [%] | increase of Compound A Cmax (OATP/P-gp) [%] | change in Cmax by high-fat/high-calorie meal [2, 3] | increase of AUCinf by high-fat/high-calorie meal [2, 3] [%] | Tmax ([2]; both sexes, human, plasma, oral, Compound 1 600 mg single dose, fasting) [h] | Tmax ([2]; both sexes, human, plasma, oral, Compound 1 600 mg single dose, with a high-fat/high-calorie meal) [h] | AUC(0-inf) ([2]; both sexes, human, plasma, oral, Cpd 1 600 mg single dose, fasting, Treatment A, mean) [ng·h/mL] | AUCinf % GLSM Ratio ([2]; non-fasting (test) vs fasting (reference), Cpd 1 600 mg) [%] | SMILES | change in AUCinf of DRSP [1] | change in Cmax of EE [1]
– | – | – | – | – | – | – | – | Cn1ccc2c([C@@H](c3cn(C45CC(C4)C5)nn3)N(C(=O)OCOP(=O)(O)O)c3cc(Cl)c4ncc(C#N)c(NCC(C)(C)C)c4c3)cccc2c1=O [Compound 1] | no change | no change
122 | 27 | no change | 92 | 4 | 5 | 46300 | 192 | Cn1ccc2c([C@H](Nc3cc(Cl)c4ncc(C#N)c(NCC(C)(C)C)c4c3)c3cn(C45CC(C4)C5)nn3)cccc2c1=O [Compound A] | – | –
